Data on seven compounds can be found in US20150316556A1, “SSEA4 AND ST3GAL2 AS CHEMOTHERAPEUTIC DRUG RESPONSE BIOMARKERS” (Miltenyi Biotech GmbH, priority 2014, published 2015).

The test system of assay [1] is primary tumor cell line derived from model HBCx-17 (suspension and adherent cells). The assay can be described thus: IC50 values of commonly used chemotherapeutic drugs on suspension versus adherent subpopulations of a primary tumor cell line. The class given is cell-based, human. To be noted: HBCx-17 derived primary tumor cell line; n=3; suspension vs adherent subpopulation.

Assay [2] deals with epithelial breast cell line MCF10A. Nature of the assay: EMT induction in epithelial breast cell line by TGFβ1. Format: cell-based, human. Here is the method:
The expression of SSEA4 was evaluated upon EMT induction. To induce a mesenchymal transition, the epithelial breast cell line MCF10A was treated with TGFβ1 at concentrations of 10 and 20 ng/ml. […] F-actin was stained by Phalloidin to visualize the cytoskeleton architecture. […] The fraction of SSEA4 positive cells was increased upon EMT induction (FIG. 8E) verifying that expression of SSEA4 indicates a more mesenchymal phenotype.
The results of the mRNA and the miRNA analysis strongly indicate that the expression of SSEA4 correlates with a more mesenchymal phenotype. […] To induce a mesenchymal transition, the epithelial breast cell line MCF10A was treated with TGFβ1 at concentrations of 10 and 20 ng/ml. […] Previously known key EMT markers like EpCAM, E-cadherin, Vimentin, and Fibronectin were regulated as expected, proving the efficiency of EMT induction using our method (FIG. 8 and data not shown). […] Strikingly, the fraction of SSEA4 positive cells was increased upon EMT induction verifying the correlation between SSEA4 expression and a more mesenchymal phenotype (FIG. 8).

Regarding `CC[C@@]1(O)C(=O)OCc2c1cc1n(c2=O)Cc2cc3c(CN(C)C)c(O)ccc3nc2-1` [Topotecan], in assay [1], the “IC50 values of suspension cells (higher SSEA4 expression) compared to adherent cells” value (from here on “IC50 values … compared to adherent cells”) is listed as “decreased IC50 values”.

On to `CCc1c2c(nc3ccc(OC(=O)N4CCC(N5CCCCC5)CC4)cc13)-c1cc3c(c(=O)n1C2)COC(=O)[C@]3(O)CC` [Irinotecan], for which, in assay [1], the “IC50 values … compared to adherent cells” value is listed as “decreased IC50 values”.

Take “TGFβ1: TGFβ1 used to induce a mesenchymal transition (EMT) in MCF10A cells”: in assay [2] (TGFβ1 10 and 20 ng/ml), the “cell morphology upon treatment” value is listed as “almost all cells changed their morphology from a compacted colony type to an elongated fibroblastic shape”, the “epithelial marker E-cadherin expression upon treatment” value is listed as “downregulated”, the “epithelial marker EpCAM expression upon treatment” value was “downregulated” and the “fraction of SSEA4 positive cells upon EMT induction” value was “increased”. Further, the “mesenchymal marker Fibronectin expression upon treatment” value in assay [2] (TGFβ1 10 and 20 ng/ml) was “upregulated”. Moreover, the “invasive potential of treated cells” value in assay [2] (TGFβ1, data not shown) is on record as “strongly increased”.

Regarding `O=c1[nH]cc(F)c(=O)[nH]1` [5-Fluorouracil], the “IC50 values … compared to adherent cells” value in assay [1] is listed as “higher IC50 values”.

Take `COc1cccc2c1C(=O)c1c(O)c3c(c(O)c1C2=O)C[C@@](O)(C(=O)CO)C[C@@H]3O[C@H]1C[C@H](N)[C@H](O)[C@H](C)O1` [doxorubicin]: the “IC50 values … compared to adherent cells” value in assay [1] was “higher IC50 values”.

`CC(=O)O[C@@]12CO[C@@H]1C[C@H](O)[C@@]1(C)C(=O)[C@H](O)C3=C(C)[C@@H](OC(=O)[C@H](O)[C@@H](NC(=O)OC(C)(C)C)c4ccccc4)C[C@@](O)([C@@H](OC(=O)c4ccccc4)[C@H]21)C3(C)C` [Docetaxel]: the “IC50 values … compared to adherent cells” value in assay [1] is on record as “higher IC50 values”.

Turning to `COc1cc([C@@H]2c3cc4c(cc3[C@@H](O[C@@H]3O[C@@H]5CO[C@@H](C)O[C@H]5[C@H](O)[C@H]3O)[C@H]3COC(=O)[C@H]23)OCO4)cc(OC)c1O` [Etoposide], the “IC50 values … compared to adherent cells” value in assay [1] was “no difference”.
